pIC50: −log10 of the molar value. Read-outs that look alike come from different tables or passages of the source.
Key:
Hs746T tumors = format: in vivo, mice
Description: Female athymic nude mice (Harlan Sprague Dawley, Madison, Wis.) were utilized for all experiments. Animals were housed in ventilated rack caging with food and water ad libitum. The mice were acclimated for at least 5 days prior to tumor implantation with a tumor cell suspension.
The tumor model used in these studies was Hs746T cell line, which was obtained from the ATCC (Manassas, Va.).
Treatments were initiated on DPI 15.
5-FU was provided as a solution which was further diluted with water for injection.
(§1) Tumor size measurements were recorded twice weekly from the treatment initiation until the termination of the study.
(§2) Mean, standard deviation and standard error of the mean were determined for tumor volume for all animal groups at all assessments. Student's t test was performed on tumor volumes at each measurement day, including at the end of the study, to determine whether there were any statistically significant differences between combination treatment groups and single monotherapy treatment groups.

MRI-H-254 tumors = format: in vivo, mice
Method: Female athymic nude mice (Harlan Sprague Dawley, Madison, Wis.) were utilized for all experiments. Animals were housed in ventilated rack caging with food and water ad libitum. The mice were acclimated for at least 5 days prior to tumor implantation with tumor fragments.
Bacterial culture was taken on cells used to implant the study.
Treatments were initiated on DPI 20.
5-FU was provided in the form of injection vials which was diluted with 0.9% sterile Saline.
as §1, §2

[1] = system: BT-474 (breast cancer) cell line; experiment: IC50 determination, MIT (tetrazolium) assay, 72 h (Example 18); format: cell-based; details: Homo sapiens, BT-474, 72 h
Method: BT-474 cells were grown in RPMI supplemented with 1% ITS (insulin, transferrin and selenium), 10% Fetal Bovine Serum (FBS), 1% penicillin/streptomycin and 2 mM L-glutamine.
Before plating, cell cultures were trypsinized and cell number estimated using an automated flow cytometer.
Cells were harvested and seeded in 96 well microtiter plates at the appropriate cell density (5,000-10,000 cells) in 150 μL of media and incubated for 24 hours to allow the cells to attach before drug addition.
After the incubation period (72 hours), 50 μL of MIT solution was added to each microtiter well and incubated for further 8 hours at 37° C. The culture medium was then removed and 50 μl, of DMSO were added to dissolve the MIT crystals. Optical densities were read at 540 nm on spectrophotometer microplate reader.
IC50 values were calculated from an average of two to four assays for each of the test agents.

H-Meso-1 tumors = format: in vivo, mice; details: G2 PM00104 0.9 mg/kg/day IV
Method: Female athymic nude mice (Harlan Sprague Dawley, Madison, Wis.) were utilized for all experiments. Animals were housed in ventilated rack caging with food and water ad libitum. The mice were acclimated for at least 5 days prior to tumor implantation.
The tumor model used in this study was H-Meso-1 cell line which is a human mesothelioma cell line obtained from the DTP, DCTD tumor repository. […] Cells were implanted SC into study mice using a 1 ml syringe with a 13G trocar: 5×10^6 cells/mouse in 0.2 ml 50% Matrigel/50% RPMI medium of H-Meso-1 without serum or antibiotics. Bacterial culture was taken on cells used to implant the study.
Treatments were initiated on DPI 6.
Tumor size measurements were recorded 2-3 times/week from the treatment initiation until the termination of the study.
as §2

[2] = PM00104 0.9, 5-FU 50 (DPI 15) then 100 (DPI 22 & 29), irinotecan 20, doxorubicin 6 mg/kg/day
[3] = PM00104 0.90 IV, 5-FU 100 IP mg/kg/day (G2, G3, G5), DPI 20, 27, 34

COc1c(C)cc2c(c1O)[C@@H]1[C@@H]3Cc4c(OC(C)=O)c(C)c5c(c4[C@H](CNC(=O)/C=C/c4cccc(C(F)(F)F)c4)N3[C@@H](O)[C@H](C2)N1C)OCO5 [PM00104]
% T/C on day 15 (Hs746T tumors; [2]): 106.6% | % T/C on day 19 (Hs746T tumors; [2]): 55.8% | % T/C on day 22 (Hs746T tumors; [2]): 60.9% | % T/C on day 26 (Hs746T tumors; [2]): 54.2% | % T/C on day 29 (Hs746T tumors; [2]): 58.6% | % T/C on day 33 (Hs746T tumors; [2]): 80.8% | % Inhibition (Hs746T tumors; day 15, PM00104 0.9 and doxorubicin 6 mg/kg/day): −6.6% | % Inhibition (Hs746T tumors; day 15, PM00104 0.9 and irinotecan 20 mg/kg/day): −6.6% | % Inhibition (Hs746T tumors; day 15, mg/kg/day: PM00104 0.90 IV, 5-FU 50 at DPI 15 and 100 at DPI 22 & 29 IP): −6.6% | % Inhibition (Hs746T tumors; day 19, PM00104 0.9 and doxorubicin 6 mg/kg/day): 44.2% | % Inhibition (Hs746T tumors; day 19, PM00104 0.9 and irinotecan 20 mg/kg/day): 44.2% | % Inhibition (Hs746T tumors; day 19, mg/kg/day: PM00104 0.90 IV, 5-FU 50 at DPI 15 and 100 at DPI 22 & 29 IP): 44.2% | % Inhibition (Hs746T tumors; day 22, PM00104 0.9 and doxorubicin 6 mg/kg/day): 39.1% | % Inhibition (Hs746T tumors; day 22, PM00104 0.9 and irinotecan 20 mg/kg/day): 39.1% | % Inhibition (Hs746T tumors; day 22, mg/kg/day: PM00104 0.90 IV, 5-FU 50 at DPI 15 and 100 at DPI 22 & 29 IP): 39.1% | % Inhibition (Hs746T tumors; day 26, PM00104 0.9 and doxorubicin 6 mg/kg/day): 45.8% | % Inhibition (Hs746T tumors; day 26, PM00104 0.9 and irinotecan 20 mg/kg/day): 45.8% | % Inhibition (Hs746T tumors; day 26, mg/kg/day: PM00104 0.90 IV, 5-FU 50 at DPI 15 and 100 at DPI 22 & 29 IP): 45.8% | % Inhibition (Hs746T tumors; day 29, PM00104 0.9 and doxorubicin 6 mg/kg/day): 41.4% | % Inhibition (Hs746T tumors; day 29, PM00104 0.9 and irinotecan 20 mg/kg/day): 41.4% | % Inhibition (Hs746T tumors; day 29, mg/kg/day: PM00104 0.90 IV, 5-FU 50 at DPI 15 and 100 at DPI 22 & 29 IP): 41.4% | % Inhibition (Hs746T tumors; day 33, PM00104 0.9 and doxorubicin 6 mg/kg/day): 19.2% | % Inhibition (Hs746T tumors; day 33, PM00104 0.9 and irinotecan 20 mg/kg/day): 19.2% | % Inhibition (Hs746T tumors; day 33, mg/kg/day: PM00104 0.90 IV, 5-FU 50 at DPI 15 and 100 at DPI 22 & 29 IP): 19.2% | % T/C on day 20 (MRI-H-254 tumors; [3]): 98.7% | % T/C on day 23 (MRI-H-254 tumors; [3]): 95.9% | % T/C on day 26 (MRI-H-254 tumors; [3]): 83.7% | % T/C on day 30 (MRI-H-254 tumors; [3]): 75.3% | % T/C on day 34 (MRI-H-254 tumors; [3]): 53.1% | % T/C on day 36 (MRI-H-254 tumors; [3]): 46.5% | % T/C on day 43 (MRI-H-254 tumors; [3]): 26.9% | % T/C on day 49 (MRI-H-254 tumors; [3]): 36.7% | % T/C on day 56 (MRI-H-254 tumors; [3]): 50.6% | % T/C on day 63 (MRI-H-254 tumors; [3]): 81.3% | % Inhibition (MRI-H-254 tumors; day 20, PM00104 0.9 and 5-FU 50 mg/kg/day): 1.3% | % Inhibition (MRI-H-254 tumors; day 20, PM00104 0.9 and 5-FU 100 mg/kg/day): 1.3% | % Inhibition (MRI-H-254 tumors; day 23, PM00104 0.9 and 5-FU 50 mg/kg/day): 4.1% | % Inhibition (MRI-H-254 tumors; day 23, PM00104 0.9 and 5-FU 100 mg/kg/day): 4.1% | % Inhibition (MRI-H-254 tumors; day 26, PM00104 0.9 and 5-FU 50 mg/kg/day): 16.3% | % Inhibition (MRI-H-254 tumors; day 26, PM00104 0.9 and 5-FU 100 mg/kg/day): 16.3% | % Inhibition (MRI-H-254 tumors; day 30, PM00104 0.9 and 5-FU 50 mg/kg/day): 24.7% | % Inhibition (MRI-H-254 tumors; day 30, PM00104 0.9 and 5-FU 100 mg/kg/day): 24.7% | % Inhibition (MRI-H-254 tumors; day 34, PM00104 0.9 and 5-FU 50 mg/kg/day): 46.9% | % Inhibition (MRI-H-254 tumors; day 34, PM00104 0.9 and 5-FU 100 mg/kg/day): 46.9% | % Inhibition (MRI-H-254 tumors; day 36, PM00104 0.9 and 5-FU 50 mg/kg/day): 53.5% | % Inhibition (MRI-H-254 tumors; day 36, PM00104 0.9 and 5-FU 100 mg/kg/day): 53.5% | % Inhibition (MRI-H-254 tumors; day 43, PM00104 0.9 and 5-FU 50 mg/kg/day): 73.1% | % Inhibition (MRI-H-254 tumors; day 43, PM00104 0.9 and 5-FU 100 mg/kg/day): 73.1% | % Inhibition (MRI-H-254 tumors; day 49, PM00104 0.9 and 5-FU 50 mg/kg/day): 63.3% | % Inhibition (MRI-H-254 tumors; day 49, PM00104 0.9 and 5-FU 100 mg/kg/day): 63.3% | % Inhibition (MRI-H-254 tumors; day 56, PM00104 0.9 and 5-FU 50 mg/kg/day): 49.4% | % Inhibition (MRI-H-254 tumors; day 56, PM00104 0.9 and 5-FU 100 mg/kg/day): 49.4% | % Inhibition (MRI-H-254 tumors; day 63, PM00104 0.9 and 5-FU 50 mg/kg/day): 18.7% | % Inhibition (MRI-H-254 tumors; day 63, PM00104 0.9 and 5-FU 100 mg/kg/day): 18.7% | pIC50 [1]: 9.00 | % T/C on day 6 (H-Meso-1 tumors): 98.5% | % T/C on day 7 (H-Meso-1 tumors): 80.3% | % T/C on day 9 (H-Meso-1 tumors): 69.7% | % T/C on day 12 (H-Meso-1 tumors): 63.3% | % T/C on day 14 (H-Meso-1 tumors): 62.9% | % T/C on day 16 (H-Meso-1 tumors): 62.1% | % T/C on day 19 (H-Meso-1 tumors): 55.1% | % T/C on day 22 (H-Meso-1 tumors): 51.6% | % T/C on day 26 (H-Meso-1 tumors): 56.0% | % T/C on day 29 (H-Meso-1 tumors): 64.9% | % Inhibition (H-Meso-1 tumors; day 6): 1.5% | % Inhibition (H-Meso-1 tumors; day 7): 19.7% | % Inhibition (H-Meso-1 tumors; day 9): 30.3% | % Inhibition (H-Meso-1 tumors; day 12): 36.7% | % Inhibition (H-Meso-1 tumors; day 14): 37.1% | % Inhibition (H-Meso-1 tumors; day 16): 37.9% | % Inhibition (H-Meso-1 tumors; day 19): 44.9% | % Inhibition (H-Meso-1 tumors; day 22): 48.4% | % Inhibition (H-Meso-1 tumors; day 26): 44.0% | % Inhibition (H-Meso-1 tumors; day 29): 35.0%

CC(=O)O[C@H]1C(=O)[C@@]2(C)[C@H]([C@H](OC(=O)c3ccccc3)[C@]3(O)C[C@H](OC(=O)[C@H](O)[C@@H](NC(=O)c4ccccc4)c4ccccc4)C(C)=C1C3(C)C)[C@]1(OC(C)=O)CO[C@@H]1C[C@@H]2O [paclitaxel]
pIC50 [1]: 8.77
